Results: patent US20250326708A1, “LONG-ACTING SPLEEN-TARGETING CATIONIC LIPID COMPOUND COMPRISING BENZENE RING STRUCTURE, COMPOSITION COMPRISING SAME, AND USE THEREOF” (Beijing Youcarekechuang Pharmaceutical Technology Co., Ltd., priority 2024, published 2025)
Several values for one entry are separate records, joined by “and”; a condition that tells them apart may be missing. Equal values may be shown once.

Columns and labels:
female BALB/C mice [1] = test: Distribution of delivered small nucleic acid drug (Cy5 fluorescently labeled Leqvio) in different organs of mice; assay type: in vivo
Method: LNP preparations containing 5 μg of Cy5 fluorescently labeled Leqvio were injected via the tail vein into female BALB/C mice (4 to 6 weeks old, weighing 17 to 19 g). At a specific time point after administration (4 h), the average radiation intensity (corresponding to fluorescence intensity) resulting from the Cy5 fluorescently labeled Leqvio delivered by the LNP preparations in the mice in vivo was detected using the IVIS Spectrum small-animal in vivo imaging system. After sampling, the mice were killed by cervical dislocation and dissected, and the internal organs: heart, liver, spleen, lung, kidney, and lymph of mice were accurately isolated. The average radiation intensity (corresponding to fluorescence intensity) resulting from Cy5 fluorescently labeled Leqvio delivered by the LNP preparations in various organs of mice was then detected using the IVIS Spectrum small-animal in vivo imaging system.

293T cells [2] = test: Cell viability assay (CCK-8) with LNP preparations of Fluc-mRNA; assay type: cell-based
Method in brief: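 293T cells seeded at 10,000/well and cultured overnight, then given LNPs (cationic lipid:DSPC:cholesterol:DMG-PEG2000 49:10:39.5:1.5) carrying 1.5 μg Fluc-mRNA. After 24 h, viability measured by CCK-8 with 1 h incubation.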

293T cells [3] = test: Fluorescence detection of Fluc-mRNA (transfection efficiency) of LNP preparations; assay type: cell-based; details: Fluc-mRNA LNP
Method in brief: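 293T cells seeded at 10,000 per well in 96-well plates overnight, then dosed with LNPs (cationic lipid:DSPC:cholesterol:DMG-PEG2000 49:10:39.5:1.5 molar; total lipid:mRNA 15:1 w/w) carrying 0.3 μg Fluc-mRNA. After 24 h, luciferase kit reagents added and fluorescence intensity per well read by IVIS imaging.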

female BALB/C mice [4] = test: Expression of delivered mRNA in different organs of mice (organ imaging); assay type: in vivo
Method in brief: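 Female BALB/C mice (4–6 weeks, 17–19 g) received LNPs carrying 5 μg Fluc-mRNA subcutaneously. At 6 h, imaging substrate was given i.p.; after 5 min, whole-body and then excised-organ (heart, liver, spleen, lung, kidney, lymph) average radiance was measured by IVIS Spectrum imaging.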

[5] = Particle size and polydispersity index (PDI) of lipid nanoparticles, dynamic light scattering; assay type: physicochemical; details: LNP preparation with the named cationic lipid; 90° scattering angle, 25° C
Method in brief: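 LNPs of cationic lipid:DSPC:cholesterol:DMG-PEG2000 (49:10:39.5:1.5 molar) encapsulating eGFP or Fluc mRNA at 15:1 lipid:mRNA weight ratio, made by ethanol injection into citrate buffer pH 4–5, sonication, and ultrafiltration into PBS. Size and PDI by DLS at 90° and 25° C after dilution in water, three measurements per sample.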

[6] = 4 hours after 5 μg Cy5 fluorescently labeled Leqvio via tail vein
[7] = 6 hours after 5 μg Fluc-mRNA subcutaneously

For `CCCCCCCCCCCOC(=O)CCCN(CCCCCCC(=O)OCCC(CCCCCC)CCCCCC)CCNC(CO)(CO)CCc1ccc(CCCCCCCC)cc1` [YK-910, 3-hexylnonyl 7-((2-((1-hydroxy-2-(hydroxymethyl)-4-(4-octylphenyl)butan-2-yl)amino)ethyl) (4-oxo-4-(undecyloxy)butyl)amino) heptanoate], which “Average radiation intensity of mouse organs: Heart” value (female BALB/C mice [1]; [6]) is on record?
Its value is 0.

And the “Average radiation intensity of mouse organs: Kidney” value (female BALB/C mice [1]; [6])?
Its value is 53243.

What about the “Average radiation intensity of mouse organs: Liver” value (female BALB/C mice [1]; [6]) of the same compound?
Its value is 33583.

And the “Average radiation intensity of mouse organs: Lung” value (female BALB/C mice [1]; [6])?
The value was 0.

And the “Average radiation intensity of mouse organs: Lymph” value (female BALB/C mice [1]; [6])?
Its value is 0.

And the “Average radiation intensity of mouse organs: Spleen” value (female BALB/C mice [1]; [6])?
The value was 63583.

What about the “Fluorescence intensity in the spleen, times that of SM-102” value (female BALB/C mice [1]; Cy5 Leqvio, spleen, 4 h, vs SM-102) of the same compound?
Its value is 51.19 times.

What about the “Fluorescence intensity in the spleen, times that of YK-501” value (female BALB/C mice [1]; Cy5 Leqvio, spleen, 4 h, vs YK-501) of the same compound?
Its value is 11.91 times.

And the “Fluorescence intensity in the spleen, times that of YK-506” value (female BALB/C mice [1]; Cy5 Leqvio, spleen, 4 h, vs YK-506)?
The value was 2.85 times.

And the “Fluorescence intensity in the spleen, times that of direct administration” value (female BALB/C mice [1]; Cy5 Leqvio, spleen, 4 h, vs direct administration)?
Its value is 150.67 times.

What about the Cell viability (293T cells [2]; LNP with 1.5 μg Fluc-mRNA, 24 hours, CCK-8) of the same compound?
The Cell viability was 94%.

And the “Cell viability higher than that of HHMA” value (293T cells [2]; difference vs HHMA)?
The value was 17%.

And the “Cell viability higher than that of I-1” value (293T cells [2]; difference vs I-1)?
The value was 26%.

What about the “Cell viability higher than that of Lipofectamine 3000” value (293T cells [2]; difference vs Lipofectamine 3000) of the same compound?
Its value is 63%.

What about the “Cell viability higher than that of MC3” value (293T cells [2]; difference vs MC3) of the same compound?
The value was 20%.

And the “Cell viability higher than that of SM-102” value (293T cells [2]; difference vs SM-102)?
The value was 12%.

And the “Cell viability higher than that of YK-501” value (293T cells [2]; difference vs YK-501)?
The value was 31%.

What about the “Cytotoxicity lower than that of YK-902” value (293T cells [2]; difference vs YK-902) of the same compound?
Its value is 58%.

And the “Cell viability higher than that of YK-906” value (293T cells [2]; difference vs YK-906)?
Its value is 31%.

And the “Cell viability higher than that of compound 7” value (293T cells [2]; difference vs compound 7)?
Its value is 21%.

And the “Cellular transfection efficiency, times that of HHMA” value (293T cells [3]; vs HHMA)?
Its value is 8.53 times.

And the “Cellular transfection efficiency, times that of I-1” value (293T cells [3]; vs I-1)?
The value was 42.56 times.

And the “Cellular transfection efficiency, times that of Lipofectamine 3000” value (293T cells [3]; vs Lipofectamine 3000)?
Its value is 10.24 times.

And the “Cellular transfection efficiency, times that of MC3” value (293T cells [3]; vs MC3)?
The value was 90.92 times.

And the “Cellular transfection efficiency, times that of SM-102” value (293T cells [3]; vs SM-102)?
Its value is 6.04 times.

And the “Cellular transfection efficiency, times that of YK-501” value (293T cells [3]; vs YK-501)?
Its value is 186.59 times.

And the “Cellular transfection efficiency, times that of YK-506” value (293T cells [3]; vs YK-506)?
The value was 13.19 times.

And the “Cellular transfection efficiency, times that of YK-903” value (293T cells [3]; vs YK-903)?
Its value is 345.06 times.

What about the “Cellular transfection efficiency, times that of YK-906” value (293T cells [3]; vs YK-906) of the same compound?
The value was 313 times and 313.25 times.

What about the “Cellular transfection efficiency, times that of compound 7” value (293T cells [3]; vs compound 7) of the same compound?
The value was 33.51 times.

What about the “Average radiation intensity of mouse organs: Heart” value (female BALB/C mice [4]; [7]) of the same compound?
The value was 0.

And the “Average radiation intensity of mouse organs: Kidney” value (female BALB/C mice [4]; [7])?
The value was 0.

What about the “Average radiation intensity of mouse organs: Liver” value (female BALB/C mice [4]; [7]) of the same compound?
Its value is 11424.

And the “Average radiation intensity of mouse organs: Lung” value (female BALB/C mice [4]; [7])?
Its value is 0.

And the “Average radiation intensity of mouse organs: Lymph” value (female BALB/C mice [4]; [7])?
The value was 0.

And the “Average radiation intensity of mouse organs: Spleen” value (female BALB/C mice [4]; [7])?
Its value is 242444.

What about the “Expression level of mRNA in the spleen, times that of SM-102” value (female BALB/C mice [4]; spleen, 6 h, vs SM-102) of the same compound?
The value was 9.49 times.

What about the “Expression level of mRNA in the spleen, times that of YK-501” value (female BALB/C mice [4]; spleen, 6 h, vs YK-501) of the same compound?
Its value is 17.04 times.

And the “Expression level of mRNA in the spleen, times that of YK-506” value (female BALB/C mice [4]; spleen, 6 h, vs YK-506)?
Its value is 3.40 times.

What about the PDI [5] of the same compound?
Its PDI is 10.3%.

And the Particle size [5]?
The Particle size was 126 nm.
